Data as given in PMC7894603 (Science translational medicine, 2020).

System: Kras and Trp53 mutant (KP) lung adenocarcinoma mouse model
Assay type: in vivo
Settings: IT, urine 60-120 min; for change of KP/control reporter difference over 5, 7.5 and 10.5 weeks: MeanNormPARKP/MeanNormPARControl

| Sequence | change of KP/control reporter difference over 5, 7.5 and 10.5 weeks | urinary reporter in KP versus healthy mice (10.5 weeks after tumor initiation, mean-normalized PAR) |
| --- | --- | --- |
| GGLGPKGQTGC [PP07] | amplified over time | – |
| GGSGSKIIGGGC [PP11] | amplified over time | most significantly enriched reporter |
